Reference: US20140005163A1 (NOVARTIS AG, priority 2010, published 2014)
pIC50: −log10 of the molar value. In brackets after ≈: the same amount, converted by molar mass.

Key:
PI3K gamma = target: T1, PI3K gamma (Homo sapiens, UniProt P48736); assay: PI3K gamma kinase assay (Kinase-Glo luminescence); format: biochemical
T1 construct: His tag (C); made in house; host or cells: baculovirus (pVL1393); Tn5 or TiniPro insect cells; construct from Roger Williams lab, MRC LMB
Method in brief: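 Luminescent ATP-depletion (Kinase-Glo) assay with 150 nM PI3Kγ, 1 μM ATP and 10 μg/mL phosphatidylinositol in 10 mM Tris-HCl pH 7.5, 3 mM MgCl2, 50 mM NaCl, 0.05% CHAPS, 1 mM DTT; 120 min at room temperature. Eight-point dilutions; IC50 by four-parameter logistic fit.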

[1] = Cellular CaCo2 permeability assay from apical to basal (A-B); format: in vitro ADME; conditions: human, Caco-2, read-out: Pe A-B (permeability)
Text: The permeability in 10^−6 cm/s of compounds of formula (I) have been confirmed for selected example using a cellular CaCo2 permeability assay from apical to basal (A-B): […]

PI3K delta = target: T2, PI3K delta (Homo sapiens, UniProt O00329); assay: PI3K delta kinase assay (Kinase-Glo luminescence); format: biochemical
T2 construct: for the full-length p110-d subunit are generated and fused by overlapping PCR; p85(iSH2) fusion partner (see partner chain) (N); His tag (C); made in house; host or cells: baculovirus; Tn5 (Trichoplusia ni) or TiniPro insect cells
Method in brief: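 Inhibition is derived from luminescent detection of unconsumed ATP. The reaction runs for one hour at ambient temperature and contains the δ isoform fusion protein, phosphatidylinositol substrate and low (1 μM) ATP. Eight compound concentrations are tested in single, and a 4-parameter logistic model is used to calculate IC50.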

[2] = system: S6 Ribosomal Protein phosphorylation Ser235/236 in TSC1 null mouse embryo fibroblast (MEF) cells; assay: Reverse protein array assay, S6 Ribosomal Protein phosphorylation Ser235/236 in TSC1 null MEF cells; format: cell-based; conditions: 1 h, pS6 ribosomal protein Ser235/236, 60 minutes incubation, read-out: p-S6 IC50
Method in brief: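 TSC1−/− MEFs, seeded and held ≥20 h at 37 °C/5% CO2, were exposed to 8-step serial compound dilutions (0.02% DMSO final; DMSO vehicle control) for 60 min at 37 °C. Cells were then lysed on ice for 10 min and lysates spotted onto reverse protein array chips.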

[3] = Solubility in the organic solvents PEG400, propyleneglycol and ethanol; format: physicochemical; conditions: organic solvent or mixture
Text: Compounds of the invention display particularly high solubilities in organic solvents. The compounds of the invention are thus particularly useful for topical administration, e.g. to a mammal such as a human, e.g. to the skin of said mammal. The compounds are thus useful for formulation into compositions suitable for topical administration. Compounds displaying high solubility thus provide an advantage for topical administration over compounds having a lower solubility.
The solubility of certain compounds was determined in the organic solvents PEG400, propyleneglycol and ethanol.

[4] = In vitro skin penetration and permeation, pig skin in static Franz-type diffusion cells; format: in vitro ADME; conditions: 0.5% solution in propylene glycol, 48 hours exposure, mean ± SD of triplicate; for Skin concentration: after removal of stratum corneum; for Permeation rate: receiver
Procedure: The skin penetration/permeation properties of two representative compounds of the present invention were tested as follows:
The compounds were applied as 0.5% solutions in propylene glycol to pig skin mounted in static Franz-type diffusion cells. At the end of a 48 hours exposure time, drug concentrations were measured in the skin (after removal of stratum corneum) and in the receiver.

[5] = absolute ethanol, excipient Ethanol abs.
[6] = propylene glycol, excipient Propyleneglycol

T2 sequence (O00329 with tags, fused parts or gaps limits assumed): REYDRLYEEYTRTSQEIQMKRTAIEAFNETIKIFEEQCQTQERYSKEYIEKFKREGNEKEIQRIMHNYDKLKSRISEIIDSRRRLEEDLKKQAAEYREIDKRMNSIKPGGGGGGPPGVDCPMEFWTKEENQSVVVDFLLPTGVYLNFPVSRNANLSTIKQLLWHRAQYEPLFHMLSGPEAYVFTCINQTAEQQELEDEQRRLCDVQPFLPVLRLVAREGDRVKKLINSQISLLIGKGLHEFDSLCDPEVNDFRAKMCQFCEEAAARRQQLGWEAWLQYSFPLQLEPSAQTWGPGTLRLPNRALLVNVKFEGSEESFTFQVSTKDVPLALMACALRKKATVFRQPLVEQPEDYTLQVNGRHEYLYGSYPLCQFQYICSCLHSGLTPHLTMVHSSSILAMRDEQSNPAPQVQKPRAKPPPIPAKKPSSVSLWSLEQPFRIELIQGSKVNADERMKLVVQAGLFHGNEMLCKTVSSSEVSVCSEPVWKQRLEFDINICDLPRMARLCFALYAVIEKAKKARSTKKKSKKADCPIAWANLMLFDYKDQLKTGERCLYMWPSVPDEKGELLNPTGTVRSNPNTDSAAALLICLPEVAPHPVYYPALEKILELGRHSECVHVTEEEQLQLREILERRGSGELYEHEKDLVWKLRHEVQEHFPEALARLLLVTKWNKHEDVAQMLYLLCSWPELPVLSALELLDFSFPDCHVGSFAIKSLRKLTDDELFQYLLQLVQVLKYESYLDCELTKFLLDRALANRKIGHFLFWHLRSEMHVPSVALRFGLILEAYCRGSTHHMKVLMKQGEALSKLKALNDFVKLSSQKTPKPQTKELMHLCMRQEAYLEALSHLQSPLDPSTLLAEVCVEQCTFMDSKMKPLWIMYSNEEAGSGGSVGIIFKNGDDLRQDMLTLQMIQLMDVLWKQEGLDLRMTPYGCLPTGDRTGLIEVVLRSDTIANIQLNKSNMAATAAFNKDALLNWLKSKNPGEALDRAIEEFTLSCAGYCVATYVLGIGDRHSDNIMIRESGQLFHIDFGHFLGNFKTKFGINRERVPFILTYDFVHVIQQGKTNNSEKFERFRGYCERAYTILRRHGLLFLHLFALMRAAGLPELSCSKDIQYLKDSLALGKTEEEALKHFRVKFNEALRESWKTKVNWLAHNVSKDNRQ
T1 sequence (P48736 144-1102 limits assumed): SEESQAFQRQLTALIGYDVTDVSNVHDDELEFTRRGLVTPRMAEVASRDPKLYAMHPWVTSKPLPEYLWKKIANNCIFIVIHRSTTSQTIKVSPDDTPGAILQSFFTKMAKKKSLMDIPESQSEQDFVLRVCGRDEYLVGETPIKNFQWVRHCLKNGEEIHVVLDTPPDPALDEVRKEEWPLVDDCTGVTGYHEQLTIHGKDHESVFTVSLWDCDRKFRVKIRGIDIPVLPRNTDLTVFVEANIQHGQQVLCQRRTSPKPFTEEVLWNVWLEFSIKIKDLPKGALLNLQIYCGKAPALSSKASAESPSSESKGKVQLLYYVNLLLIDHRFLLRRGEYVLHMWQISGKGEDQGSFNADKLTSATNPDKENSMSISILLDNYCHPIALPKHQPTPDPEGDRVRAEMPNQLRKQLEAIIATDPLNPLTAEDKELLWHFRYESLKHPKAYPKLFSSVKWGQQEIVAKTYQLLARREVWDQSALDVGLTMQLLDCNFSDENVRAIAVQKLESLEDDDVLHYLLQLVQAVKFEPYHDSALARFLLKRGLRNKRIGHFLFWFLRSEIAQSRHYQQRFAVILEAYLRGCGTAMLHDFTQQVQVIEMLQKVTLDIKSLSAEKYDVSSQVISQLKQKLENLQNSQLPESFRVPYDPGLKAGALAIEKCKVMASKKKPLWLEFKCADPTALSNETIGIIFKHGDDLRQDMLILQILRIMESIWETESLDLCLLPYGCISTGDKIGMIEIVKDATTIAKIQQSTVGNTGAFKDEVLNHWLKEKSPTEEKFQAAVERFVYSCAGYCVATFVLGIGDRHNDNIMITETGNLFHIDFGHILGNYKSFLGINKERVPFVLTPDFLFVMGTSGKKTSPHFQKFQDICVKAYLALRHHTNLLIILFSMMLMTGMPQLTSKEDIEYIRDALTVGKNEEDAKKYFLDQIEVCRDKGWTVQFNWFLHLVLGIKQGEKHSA

SMILES	pIC50 (PI3K gamma)	Papp A→B [1] [×10⁻⁶ cm/s]	pIC50 (PI3K delta)	pIC50 [2]	solubility [3, 5] [mg/mL]	solubility ([3]; excipient PEG400) [mg/mL]	solubility [3, 6] [mg/mL]	Skin concentration [4] [µg/g]	Permeation rate [4] [ng/cm^2/hr]
COc1ccc(-c2ccc3ncc4c(c3c2)n(-c2cn(C)nc2C)c(=O)n4C)cc1OC [Example 1.8, 8-(3,4-Dimethoxy-phenyl)-1-(1,3-dimethyl-1H-pyrazol-4-yl)-3-methyl-1,3-dihydro-imidazo[4,5-c]quinolin-2-one]	6.84	28.6	8.30	> 8.30	–	–	–	–	–
CCOc1ccc(-c2ccc3ncc4c(c3c2)n(-c2cn(CC)nc2C)c(=O)n4C)cn1 [Example 3.5, 8-(6-Ethoxy-pyridin-3-yl)-1-(1-ethyl-3-methyl-1H-pyrazol-4-yl)-3-methyl-1,3-dihydro-imidazo[4,5-c]quinolin-2-one]	6.45	31.2	7.40	7.24	–	–	–	–	–
Cc1nn(C(C)C)cc1-n1c(=O)n(C)c2cnc3ccc(-c4ccc(N(C)C)nc4)cc3c21 [Example 4.1, 8-(6-Dimethylamino-pyridin-3-yl)-1-(1-isopropyl-3-methyl-1H-pyrazol-4-yl)-3-methyl-1,3-dihydro-imidazo[4,5-c]quinolin-2-one]	6.39	35.1	7.41	7.82	4.11 (≈ 9.31 mM)	> 20	> 20	–	–
Cc1nn(C)cc1-n1c(=O)n(C)c2cnc3ccc(-c4ccc(CO)nc4)cc3c21 [Example 16.2, 1-(1,3-Dimethyl-1H-pyrazol-4-yl)-8-(6-hydroxymethyl-pyridin-3-yl)-3-methyl-1,3-dihydro-imidazo[4,5-c]quinolin-2-one]	6.31	5.6	7.74	6.74	–	–	–	–	–
CCOc1cc(-c2ccc3ncc4c(c3c2)n(-c2cn(CC)nc2C)c(=O)n4C)ccc1OC [Example 28.1, 8-(3-Ethoxy-4-methoxy-phenyl)-1-(1-ethyl-3-methyl-1H-pyrazol-4-yl)-3-methyl-1,3-dihydro-imidazo[4,5-c]quinolin-2-one]	7.12	18.4	8.22	> 8.30	–	–	–	–	–
Cc1nn(C)cc1-n1c(=O)n(C)c2cnc3ccc(-c4cncc(OC(C)C)c4)cc3c21 [Example 58.1, 1-(1,3-Dimethyl-1H-pyrazol-4-yl)-8-(5-isopropoxy-pyridin-3-yl)-3-methyl-1,3-dihydro-imidazo[4,5-c]quinolin-2-one]	7.02	30.5	8.10	8.52	> 22	> 26	> 24	9.3 ± 6.2	0.5 ± 0.3
Cc1ncc(-c2ccc3ncc4c(c3c2)n(-c2cn(C)nc2C)c(=O)n4C)cc1OC(C)C [Example 84.1, 1-(1,3-Dimethyl-1H-pyrazol-4-yl)-8-(5-isopropoxy-6-methyl-pyridin-3-yl)-3-methyl-1,3-dihydro-imidazo[4,5-c]quinolin-2-one]	–	26.7	8.40	8.70	> 21	> 19	> 20	6.4 ± 3.5	<0.4
Cc1ncc(-c2ccc3ncc4c(c3c2)n(-c2cn(C)nc2C)c(=O)n4C)cc1OC(CF)CF [Example 189, 1-(1,3-Dimethyl-1H-pyrazol-4-yl)-8-[5-(2-fluoro-1-fluoromethyl-ethoxy)-6-methyl-pyridin-3-yl]-3-methyl-1,3-dihydro-imidazo[4,5-c]quinolin-2-one]	–	26.1	8.22	9.00	–	–	–	–	–
COCc1ncc(-c2ccc3ncc4c(c3c2)n(-c2cn(C)nc2C)c(=O)n4C)cc1OC(C)C [Example 191.1, 1-(1,3-Dimethyl-1H-pyrazol-4-yl)-8-(5-isopropoxy-6-methoxymethyl-pyridin-3-yl)-3-methyl-1,3-dihydro-imidazo[4,5-c]quinolin-2-one]	–	–	8.22	8.40	> 24	> 23	> 19	–	–
COc1ccc(-c2ccc3ncc4[nH]c(=O)n(-c5cn(C)nc5C)c4c3n2)cc1OC [Example 249, 8-(3,4-dimethoxy-phenyl)-1-(1,3-dimethyl-1H-pyrazol-4-yl)-1,3-dihydro-1,3,5,9-tetraaza-cyclopenta[a]naphthalen-2-one]	6.90	22.1	8.10	8.70	–	–	–	–	–
